This series in a line: gradient 5% acetonitrile 3 min, to 50% in 2 min, to 85% in 15 min, held 3 min, 100 µL/min. As to conditions: column: Zorbax Extend-C18 2.1 x 50 mm; eluents: water / acetonitrile, 0.1% formic acid. The essentials:
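Each retention time is based on an adduct peak selected computationally and verified by manual inspection. Measurements used HPLC–quadrupole time-of-flight mass spectrometry in positive and negative ionization mode on mixtures of ~100 pure standards. Chromatography ran on a Zorbax Extend-C18 column (2.1 × 50 mm, 1.8 μm) at 100 μL/min with water and acetonitrile, each containing 0.1% formic acid, and dead and dwell volumes of 40 μL and 900 μL.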
`COc1cccc(CNS(=O)(=O)c2ccccc2-c2nc(-c3cccc(F)c3)no2)c1`: the RP-LC retention time came out at 1150 s. For `CCCN(C(=O)CC)c1nc(-c2ccc(Br)cc2)cs1` the value was 1410 s; for `O=c1n(Cc2cc(F)cc(F)c2)nc2ccc(S(=O)(=O)N3CCOCC3)cn12`, 816 s; for `Cc1cccc(Cn2cc(C(=O)O)c(S(=O)(=O)N3CCSCC3)n2)c1`, 914 s. For `Cc1ccccc1N1CCN(Cc2nc(-c3ccc(N4CCSCC4)nc3)no2)CC1` the value was 801 s; for `Cc1ccc(NC2CC(=O)N(c3cccc([N+](=O)[O-])c3)C2=O)cc1` (stereo not given), 882 s. Next, `CC1CN(C(=O)COc2ccc3ccccc3c2)c2ccccc2NC1=O` (stereo not given): 825 s; `CCn1nc(N2CCCC(NS(=O)(=O)c3c(C)nn(C)c3C)C2)ccc1=O` (stereo not given): 642 s.

Consider `CCc1ccc(-c2nc(NC(=O)c3cc(C)on3)sc2C)cc1`, for which the RP-LC retention time is 1160 s. Next, `CCc1nnc2nc(N3CCN(C(=O)C(C)Oc4ccccc4)CC3)cc(C)n12` (stereo not given): 622 s. Next, `CNS(=O)(=O)c1cccnc1Nc1ccc(F)cc1`: 863 s; `Cc1ccc(Nc2nc(C)cc(N3CCN(S(=O)(=O)c4ccc(F)c(F)c4)CC3)n2)cc1`: 808 s. For the compound `O=C(CCC[C@@H]1[C@H]2CCCN3CCC[C@@H](CN1C(=O)c1ccccc1)[C@@H]23)NC1CCS(=O)(=O)C1` (stereo not given in full), the RP-LC retention time was 574 s. `CCn1c(CCc2cccc(NS(=O)(=O)c3cnc[nH]3)c2)nc2ccccc21` registered an RP-LC retention time of 524 s.

Regarding `Cn1cc(-c2ccncc2)cc1C(=O)NCc1ccc(Br)cc1`, the RP-LC retention time was found to be 662 s. `CC1CCC(NC(=O)Cc2csc3nc(-c4ccccc4)cn23)CC1` (stereo not given) came in with an RP-LC retention time of 843 s. Take `Cc1cccc(NC(=O)C2CC(=O)N(c3ccc4oc(C)nc4c3)C2)c1` (stereo not given): the RP-LC retention time is 708 s. For `Cc1ccc(CNC(=O)C(C)Oc2cc(C(F)(F)F)c3c(C)nn(C)c3n2)cc1` (stereo not given) the value was 1030 s; for `COc1cccc(-c2ccc(=O)n(CCc3nc(-c4ccc(C)cc4)no3)n2)c1`, 999 s. Next, `COc1cccc(N2CCn3c2nc2c3c(=O)n(CC(=O)O)c(=O)n2C)c1`: 702 s; `Cc1cc(NCCCC(=O)NC2CCCCC2)n2nc(-c3cccnc3)nc2n1`: 646 s; `CS(=O)(=O)N1CCC(OC2CCN(C(=O)Nc3cccc(Cl)c3)CC2)CC1`: 831 s. Take `CC1CCN(Cc2nc(-c3ccc(N4CCCC(C)C4)nc3)no2)CC1` (stereo not given): the RP-LC retention time is 695 s. For `CCCc1cc(N2CCN(C(=O)c3ccccc3)CC2)nc2nncn12` the value was 608 s; for `O=S(=O)(c1ccc2c(c1)CCC2)N1CCCn2nc(-c3ccncc3)cc2C1`, 687 s. Next, `O=C(C1=NN(Cc2ccccc2)c2ccccc2S1(=O)=O)N1CCCCCC1`: 974 s; `O=C(C1CCC1)N1CC(c2nc(-c3ccc(F)cc3)no2)C2(CCOCC2)C1` (stereo not given): 891 s. As to `Cc1ccc(Cl)cc1N1CCN(c2cc(C(=O)O)c3cc(NC(=O)C(C)(C)C)ccc3n2)CC1`, the RP-LC retention time was 830 s. For `CCN1CCN(c2nc(F)c3c(c2F)S(=O)(=O)CCN3CCOC)CC1` the value was 581 s. For `CN(C)c1ccc(CNC(=O)c2ccc3c(c2)N(C)C(=O)C2CCCCN32)cc1` (stereo not given) the value was 628 s. Consider `Cc1ccc(NC(=O)CN2CCc3ccccc3C2C(=O)N2CCCCC2)cc1C` (stereo not given), for which the RP-LC retention time worked out at 900 s. In turn, `O=S(=O)(Cc1ccccc1Cl)NCC1CCN(Cc2ccsc2)CC1` had an RP-LC retention time of 588 s. In turn, `Cc1cc(C)cc(OCCNS(=O)(=O)c2ccc3c(c2)OCCO3)c1` showed an RP-LC retention time of 934 s. For `Cc1cccc(CCNC(=O)C2CCCN(c3ncnc4c3nc3n4CCCCC3)C2)c1` (stereo not given) the value was 819 s; for `Fc1ccccc1-c1noc(NCC2CCCO2)n1` (stereo not given), 748 s; for `Cc1nc(C)c(C(=O)N(Cc2ccccn2)c2nc3c(Cl)cccc3s2)s1`, 957 s. Compound `CCCCNc1ncc(C(=O)O)c(-c2ccncc2)n1` gave an RP-LC retention time of 612 s.

Compound `Cc1ccnc(N2CCCC(C(=O)NCC3CCN(Cc4cccc(F)c4)CC3)C2)n1` (stereo not given) had an RP-LC retention time of 579 s. For `Cc1ccc(-c2nc(C)c(C(=O)NC(C)C)s2)cc1` the value was 949 s. For `CC(C)n1cnc(S(=O)(=O)N2CCC(C(=O)NCCCc3ccccc3)CC2)c1` the value was 764 s; for `COc1cccc(CNC(=O)c2c(C)sc3ccn(Cc4ccc(F)cc4)c(=O)c23)c1`, 980 s; for `CC(=O)c1ccc(Nc2c(C(=O)N3CCOCC3)cnc3nc(C)ccc23)cc1`, 568 s. For `CCOC(=O)C(C#N)C(=N)C1C(=O)OC2CCCCC21` (stereo not given) the value was 839 s; for `COc1cn(-c2ccc(F)cc2)nc1C(=O)NCCC1=CCCCC1`, 942 s; for `CC(C)CCNC(=O)c1ccc2ccnc(N3CCN(c4ccc(Cl)cc4)CC3)c2c1`, 992 s. In turn, `CCOc1ccc(NC(=O)Cn2c(N3CCOCC3)nc(C)cc2=O)cc1` returned an RP-LC retention time of 654 s. Regarding `Cn1c(=O)n(C)c2cc(N3CCOCC3)c(NC(=O)NCc3cccc(F)c3)cc21`, the RP-LC retention time turned out to be 705 s.

On to `CC(C)n1c(N2CCN(C(=O)c3ccc4nccnc4c3)CC2)cc(=O)n(C(C)C)c1=O`, for which the RP-LC retention time is 701 s.

As to `COCC1(O)CCOC2(CCN(C(=O)C3CCCCC3)CC2)C1` (stereo not given), the RP-LC retention time was determined as 656 s. The compound `Cc1ccc(CNC(=O)Cn2ncn3c(C)c(C(=O)NCc4ccc(C)cc4)c(C)c3c2=O)cc1` returned an RP-LC retention time of 851 s. On to `O=C(NCCc1ccccc1)Nc1cnc2c(c1)CCC2`, for which the RP-LC retention time worked out at 536 s. Regarding `Cc1nc(-c2csc(S(=O)(=O)N3CCCC(C(=O)Nc4ccc(F)cc4)C3)c2)no1` (stereo not given), the RP-LC retention time came out at 946 s. `CCCCOc1ccc(NC(=O)NCCN2CCN(S(C)(=O)=O)CC2)cc1`: the RP-LC retention time amounted to 600 s. In turn, `O=S(=O)(c1cccn2c(SCc3ccc(F)cc3)nnc12)N1CCc2ccccc2C1` yielded an RP-LC retention time of 944 s. Compound `CCn1nccc1C(=O)N1CCCC1c1ccccc1Cl` (stereo not given) gave an RP-LC retention time of 849 s.

In turn, `Cc1ccccc1NC(=O)NCCCn1c(C(F)(F)F)nc2cccnc21` had an RP-LC retention time of 761 s. The compound `CCC(C)NC(=O)c1c(C)sc2ccn(CC)c(=O)c12` (stereo not given) registered an RP-LC retention time of 709 s.

On to `CN1C(=O)[C@H]2CN(Cc3ccc(F)cc3F)C[C@H]2C1=O`, for which the RP-LC retention time was 587 s.

`COc1ccc(CNC(=O)NCc2nnnn2-c2ccc(F)c(F)c2)cc1OC` returned an RP-LC retention time of 678 s. Next, `CC(C)CNC(=O)c1cn(-c2ccc(-c3nc(C(C)(C)C)no3)cn2)cn1`: 1020 s; `Cc1oc(-c2ccccc2)nc1Cc1noc(COc2ccccc2)n1`: 1090 s; `CCCn1cc(C(=O)NCc2ccccc2F)c(S(=O)(=O)N2CCC(C)CC2)n1`: 1090 s.

As for `Cc1nc(N2CCCC2)c2c(C(=O)Nc3ccc(C)c(F)c3)c(C)oc2n1`, the RP-LC retention time came to 836 s. `Cc1ccc(NC(=O)N2CCc3c(c(-c4nc(C)no4)nn3C)C2)cc1` came in with an RP-LC retention time of 750 s.

`Cc1cc(NC(=O)c2nc3ccccc3s2)n(C(C)C)n1` displayed an RP-LC retention time of 806 s. Next, `C=CCN(C(=O)C1CCCN(c2ncnc3c2nc2n3CCCCC2)C1)c1ccccc1` (stereo not given): 864 s; `Cc1cc(C)cc(NC(=O)N2CCC3(CC2)NC(=O)c2ccccc2O3)c1`: 842 s. `O=C(NCC(c1ccccc1)c1c[nH]c2ccccc12)NC1CCCCC1` (stereo not given): the RP-LC retention time was 976 s. Next, `Cc1ccccc1S(=O)(=O)N1CCC2(CC1)CC(C)(O)CCO2` (stereo not given): 778 s; `COc1ccc2c(c1)C1(CCN(S(=O)(=O)c3ccc(F)c(F)c3)C1)C(=O)N2C` (stereo not given): 964 s. For `O=C(Cn1cccc(-c2nc(-c3ccc(Br)cc3)no2)c1=O)NCc1ccccc1` the value was 939 s. Next, `CCc1nn2c(CNS(=O)(=O)c3ccccc3)c(-c3ccccc3)nc2s1`: 901 s; `COc1cc(C2CN(C(=O)c3ccc4c(c3)OCO4)CC2C(=O)NCCC(C)C)cc(OC)c1OC` (stereo not given): 738 s; `COc1ccc(NC(=O)N2C[C@@H](F)C[C@H]2C(=O)N2CCc3ccccc3C2)cc1F`: 797 s. `CN1CCN(c2ccc([N+](=O)[O-])c3no[n+]([O-])c23)CC1` had an RP-LC retention time of 631 s. Compound `COc1cc([C@@H]2c3cc4c(cc3[C@H](O)[C@@H](CO)[C@@H]2C(=O)NCCCN(C)C)OCO4)cc(OC)c1OC` displayed an RP-LC retention time of 596 s. The compound `CCn1cc(CCNC(=O)Nc2ccc(C)c(C)c2)c2cccnc21` returned an RP-LC retention time of 762 s. Next, `CCOC(=O)c1ccc(NS(=O)(=O)c2cc3n(c2)CCCN(C)C3=O)cc1`: 711 s; `CCCCOc1ccc(C(=O)Nc2cc(OC)ccc2OC)cc1`: 1110 s; `Cc1ccccc1Nc1c(-c2cc(Br)ccc2F)nc2ccc(Br)cn12`: 1120 s.
